Results reported in patent US9278914B2, “SARMs and method of use thereof” (UNIVERSITY OF TENNESSEE RESEARCH FOUNDATION, priority 2004, dated 2016).

Legend:
[1] = Pharmacokinetics in beagle dogs; type: in vivo; conditions: dog, plasma
[2] = system: finishing pigs; assay: Growth performance and carcass composition of finishing pigs; type: in vivo, pig; conditions: for lb FFL: fat free lean; for L side / R side: carcass; for lbs FFL/D: fat free lean gain per day
Description: Pigs were blocked by weight and allotted to one of four treatments with ten replicate pens per treatment. Pigs were housed with one pig per pen in an environmentally controlled finishing barn with 4 ft×4 ft slatted pens.
All animals were fed a corn-soybean meal diet with 1% corn oil. […] Final SARM concentrations were 1, 3, and 10 ppm. All animals were fed their respective diets for the duration of the study.
Pigs were allowed ad libitum access to feed and water. Pigs and feeders were weighed on day 7, 14, 21, and 28 to calculate average daily gain (ADG), average daily feed intake (ADFI), and feed-to-gain ratio (F/G or F:G). Each pen served as an experimental unit for all statistical analysis.
Pigs were slaughtered at the Kansas State University Meats Laboratory at the end of the study for collection of individual carcass data. At 24 hours postmortem, the right side of the carcass was frozen at −40° C. for approximately […]. After freezing, sides were ground once through a grinder equipped with a 19 mm die, then mixed and ground through a second grinder equipped with a 9.5 mm die. A sub sample of ground carcass was then chemically analyzed to determine percentages of crude protein, moisture/dry matter, lipid, and ash. Carcass measurements were done on the left side of the carcass, and a sample of lean and fat was taken from the longissimus at approximately the 10th rib.
The data were analyzed as a randomized complete-block design. Analysis of variance was performed by using the MIXED procedure of SAS. Linear and quadratic contrasts were used to evaluate the effects of increasing the level of the SARM on growth and carcass performance.

SMILES: C[C@](O)(COc1ccc(Cl)c(F)c1)C(=O)Nc1ccc(C#N)c(C(F)(F)F)c1 [S-II, (S)-3-(4-chloro-3-fluorophenoxy)-N-(4-cyano-3-(trifluoromethyl)phenyl)-2-hydroxy-2-methylpropanamide]
- clearance ([1]; oral): 0.36 ± 0.12 mL/min/kg
- half-life ([1]; oral): 37 ± 26.8 h
- Vd ([1]; oral, read-out: Vz): 1.27 ± 0.352 L/kg
- bioavailability ([1]; po, peroral): 72.5%
- Carcass Wt ([2]; 1 PPM): 201
- Live Wt ([2]; 1 PPM): 289
- Carcass Wt ([2]; 3 PPM): 200
- Live Wt ([2]; 3 PPM): 288
- Carcass Wt ([2]; 10 PPM): 197
- Live Wt ([2]; 10 PPM): 281
- ADFI (average daily feed intake) ([2]; Day 0-7, 1 ppm in diet): 7.56
- ADG (average daily gain) ([2]; Day 0-7, 1 ppm in diet): 2.89
- ADFI (average daily feed intake) ([2]; Day 0-7, 3 ppm in diet): 7.54
- ADG (average daily gain) ([2]; Day 0-7, 3 ppm in diet): 2.37
- ADG (average daily gain) ([2]; Day 0-7, 10 ppm in diet): 2.17
- ADFI (average daily feed intake) ([2]; Day 0-7, 10 ppm in diet, listed as SARM): 7.4
- ADG (average daily gain) ([2]; Day 0-28 (total), 1 ppm in diet): 2.74
- ADG (average daily gain) ([2]; Day 0-28 (total), 3 ppm in diet, listed as SARM): 2.7
- ADG (average daily gain) ([2]; Day 0-28 (total), 10 ppm in diet, listed as SARM): 2.5
- ADFI (average daily feed intake) ([2]; Day 0-28, 1 ppm in diet): 8.28
- ADFI (average daily feed intake) ([2]; Day 0-28, 3 ppm in diet): 8.38
- ADFI (average daily feed intake) ([2]; Day 0-28, 10 ppm in diet): 7.85
- ADFI (average daily feed intake) ([2]; Day 8-14, 1 ppm in diet): 8.74
- ADG (average daily gain) ([2]; Day 8-14, 1 ppm in diet): 2.59
- ADG (average daily gain) ([2]; Day 8-14, 3 ppm in diet): 2.65
- ADFI (average daily feed intake) ([2]; Day 8-14, 3 ppm in diet, listed as SARM): 8.5
- ADFI (average daily feed intake) ([2]; Day 8-14, 10 ppm in diet): 7.89
- ADG (average daily gain) ([2]; Day 8-14, 10 ppm in diet): 2.37
- ADFI (average daily feed intake) ([2]; Day 15-21, 1 ppm in diet): 8.33
- ADG (average daily gain) ([2]; Day 15-21, 1 ppm in diet): 2.33
- ADFI (average daily feed intake) ([2]; Day 15-21, 3 ppm in diet): 8.61
- ADG (average daily gain) ([2]; Day 15-21, 3 ppm in diet): 2.65
- ADFI (average daily feed intake) ([2]; Day 15-21, 10 ppm in diet): 7.78
- ADG (average daily gain) ([2]; Day 15-21, 10 ppm in diet): 2.43
- ADFI (average daily feed intake) ([2]; Day 22-28, 1 ppm in diet): 8.51
- ADG (average daily gain) ([2]; Day 22-28, 1 ppm in diet): 3.15
- ADFI (average daily feed intake) ([2]; Day 22-28, 3 ppm in diet): 8.89
- ADG (average daily gain) ([2]; Day 22-28, 3 ppm in diet): 3.15
- ADFI (average daily feed intake) ([2]; Day 22-28, 10 ppm in diet): 8.33
- ADG (average daily gain) ([2]; Day 22-28, 10 ppm in diet): 3.03
- Gain ([2]; Days 0-7, 1 PPM): 20.3
- Gain ([2]; Days 0-7, 3 PPM): 16.6
- Gain ([2]; Days 0-7, 10 PPM): 15.2
- Gain ([2]; Days 8-14, 1 PPM): 18.2
- Gain ([2]; Days 8-14, 3 PPM): 18.6
- Gain ([2]; Days 8-14, 10 PPM): 16.6
- Gain ([2]; Days 15-21, 1 PPM): 16.3
- Gain ([2]; Days 15-21, 3 PPM): 18.5
- Gain ([2]; Days 15-21, 10 PPM): 17.0
- Gain ([2]; Days 22-28, 1 PPM): 22.0
- Gain ([2]; Days 22-28, 3 PPM): 22.0
- Gain ([2]; Days 22-28, 10 PPM): 21.2
- average daily gain (ADG) over the course of the study, trend ([2]; FIG. 5A): increased
- fat free lean gain per day, trend ([2]; FIG. 5C): increased
- ADG for days 21-28, trend ([2]; FIG. 5D): dramatically increased
- improvement in lean percent ([2]; SARM-treated pigs vs control): ≤ 2%
- improvement in pounds of fat free lean ([2]; SARM-treated pigs vs control): ≤ 2%
- increase in loin eye area (LEA) ([2]; SARM-treated pigs vs control): ≤ 4%
- 1st rib fat ([2]; Table 6, 1 ppm): 1.47 in
- 10th rib fat ([2]; Table 6, 1 ppm): 0.78 in
- Dress ([2]; Table 6, 1 ppm): 69.6%
- Fat free lean ([2]; Table 6, 1 ppm): 106.9 lb
- Heart Wt ([2]; Table 6, 1 ppm): 1.04 lb
- Kidney Wt ([2]; Table 6, 1 ppm): 1.2 lb
- LEA ([2]; Table 6, 1 ppm): 7.26 in^2
- Last lumbar fat (row head printed only as 'in') ([2]; Table 6, 1 ppm): 0.77 in
- Last rib fat ([2]; Table 6, 1 ppm): 0.9 in
- Lean ([2]; Table 6, 1 ppm): 53.2%
- Liver Wt ([2]; Table 6, 1 ppm): 4.58 lb
- 1st rib fat ([2]; Table 6, 3 ppm): 1.48 in
- 10th rib fat ([2]; Table 6, 3 ppm): 0.8 in
- Dress ([2]; Table 6, 3 ppm): 69.3%
- Fat free lean ([2]; Table 6, 3 ppm): 105.5 lb
- Heart Wt ([2]; Table 6, 3 ppm): 1.07 lb
- Kidney Wt ([2]; Table 6, 3 ppm): 1.18 lb
- LEA ([2]; Table 6, 3 ppm): 7.22 in^2
- Last lumbar fat (row head printed only as 'in') ([2]; Table 6, 3 ppm): 0.82 in
- Last rib fat ([2]; Table 6, 3 ppm): 0.91 in
- Lean ([2]; Table 6, 3 ppm): 52.9%
- Liver Wt ([2]; Table 6, 3 ppm): 4.95 lb
- 1st rib fat ([2]; Table 6, 10 ppm): 1.43 in
- 10th rib fat ([2]; Table 6, 10 ppm): 0.74 in
- Dress ([2]; Table 6, 10 ppm): 70%
- Fat free lean ([2]; Table 6, 10 ppm): 106.7 lb
- Heart Wt ([2]; Table 6, 10 ppm): 1.01 lb
- Kidney Wt ([2]; Table 6, 10 ppm): 1.16 lb
- LEA ([2]; Table 6, 10 ppm): 7.59 in^2
- Last lumbar fat (row head printed only as 'in') ([2]; Table 6, 10 ppm): 0.74 in
- Last rib fat ([2]; Table 6, 10 ppm): 0.86 in
- Lean ([2]; Table 6, 10 ppm): 54.3%
- Liver Wt ([2]; Table 6, 10 ppm): 4.84 lb
- 1st rib fat ([2]; Table 7, 1 PPM): 1.47
- 10th rib fat ([2]; Table 7, 1 PPM): 0.780
- Dress % ([2]; Table 7, 1 PPM): 70%
- Heart Wt ([2]; Table 7, 1 PPM): 1.04
- Kidney Wt ([2]; Table 7, 1 PPM): 1.20
- Last lumbar fat ([2]; Table 7, 1 PPM): 0.770
- Last rib fat ([2]; Table 7, 1 PPM): 0.900
- Liver Wt ([2]; Table 7, 1 PPM): 4.58
- 1st rib fat ([2]; Table 7, 3 PPM): 1.48
- 10th rib fat ([2]; Table 7, 3 PPM): 0.800
- Dress % ([2]; Table 7, 3 PPM): 69%
- Heart Wt ([2]; Table 7, 3 PPM): 1.07
- Kidney Wt ([2]; Table 7, 3 PPM): 1.18
- Last lumbar fat ([2]; Table 7, 3 PPM): 0.815
- Last rib fat ([2]; Table 7, 3 PPM): 0.905
- Liver Wt ([2]; Table 7, 3 PPM): 4.95
- 1st rib fat ([2]; Table 7, 10 PPM): 1.43
- 10th rib fat ([2]; Table 7, 10 PPM): 0.735
- Dress % ([2]; Table 7, 10 PPM): 70%
- Heart Wt ([2]; Table 7, 10 PPM): 1.01
- Kidney Wt ([2]; Table 7, 10 PPM): 1.16
- Last lumbar fat ([2]; Table 7, 10 PPM): 0.740
- Last rib fat ([2]; Table 7, 10 PPM): 0.855
- Liver Wt ([2]; Table 7, 10 PPM): 4.84
- lb FFL ([2]; Table 7, 1 PPM): 107 lb
- lb FFL ([2]; Table 7, 3 PPM): 106 lb
- lb FFL ([2]; Table 7, 10 PPM): 107 lb
- LEA ([2]; Table 7, loin eye area, 1 PPM): 7.26
- LEA ([2]; Table 7, loin eye area, 3 PPM): 7.22
- LEA ([2]; Table 7, loin eye area, 10 PPM): 7.59
- L side ([2]; 1 PPM): 98.0
- R side ([2]; 1 PPM): 103
- L side ([2]; 3 PPM): 97.7
- R side ([2]; 3 PPM): 102
- L side ([2]; 10 PPM): 96.8
- R side ([2]; 10 PPM): 99.8
- lbs FFL/D ([2]; 1 PPM): 0.822 lbs/D
- lbs FFL/D ([2]; 3 PPM): 0.774 lbs/D
- lbs FFL/D ([2]; 10 PPM): 0.814 lbs/D
- Day 0-7 F:G, effect of treatment ([2]; linear contrast): significantly increased
- Day 8-14 average daily feed intake (ADFI), effect of treatment ([2]; linear contrast): decreased
- carcass crude fat, effect of feeding ([2]; pig, in vivo): reducing
